The source of these data is patent US20110251188A1, “ACENAPHTHO HETEROCYCLE COMPOUNDS, CYCLODEXTRIN INCLUSION COMPOUNDS AND COMPLEXES, AND USES IN THE MANUFACTURES OF BH3 PROTEIN ANALOGUE, BCL-2 FAMILY PROTEIN INHIBITORS THEREOF” (DALIAN UNIVERSITY OF TECHNOLOGY, priority 2008, published 2011).

The structures appear in SMILES notation.

For one experiment, the target named is T1, interaction between Bcl-2 and Bax (Homo sapiens, UniProt P10415).
T1 construct: expressed in transfected cells; host or cells: Hela cells
T1 sequence (P10415 whole entry): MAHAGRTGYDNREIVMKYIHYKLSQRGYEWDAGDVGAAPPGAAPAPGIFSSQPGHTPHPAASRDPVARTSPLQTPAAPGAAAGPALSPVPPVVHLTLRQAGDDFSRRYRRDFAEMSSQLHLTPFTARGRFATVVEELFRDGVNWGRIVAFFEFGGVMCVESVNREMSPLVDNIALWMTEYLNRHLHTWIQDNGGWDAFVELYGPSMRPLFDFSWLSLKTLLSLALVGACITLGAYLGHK
The experiment is described as follows: intracellular fluorescence polarization energy transfer (FRET), Hela cells transfected with Bcl-2-CFP and Bax-YFP. Format: cell-based. The note with it: goes with the concentration of E11. The protocol:
24 hours later (please refer to FIG. 2), the cells were washed with PBS for three times. The fluorescence value was detected by GENIOS fluorescence enzyme-labelled meter (TECAN, Swiss). In time-dependent experiment, the transfected cells were inoculated in a 6-well plate, after that, 40 μM of the compound was added thereinto. 3, 6 and 24 hours later (FIG. 3), the fluorescence intensities were detected by plate reader. As for the cell group in which only Bcl-2-CFP plasmid was transfected, the values at 475 nm emission wave length and 433 nm excitation wave length were recorded. As for the cell group in which only Bax-YFP plasmid was transfected, the values at 527 nm emission wave length and 505 nm excitation wave length were recorded. […] The ratio of fluorescence intensity at 527 nm and 475 nm emission wave lengths was FRET. The FRET for the control group in which the plasmid was solely transfected was set as 1.0. […] The cellular vitality was detected by MTT method.
Wherein the concentration and time meant that the detected compound interfered with the interaction between Bcl-2 and Bax at the concentration for the time period.
`N#CC1=C2C(=NC1=O)c1c(Sc3ccc(Br)cc3)ccc3c(Sc4ccc(Br)cc4)ccc2c13` [3,6-di(4-bromophenylthio)-8-oxo-8H-acenaphtho[1,2-b]pyrrole-9-carbonitrile]: the “Time for which the compound interfered with the interaction between Bcl-2 and Bax” value (shortened to “Time for which the compound interfered”) was 2 h.
Consider `N#CC1=C2C(=NC1=O)c1c(Sc3ccc(N)cc3)ccc3cccc2c13` [6-(4-aminophenylthio)-8-oxo-8H-acenaphtho[1,2-b]pyrrole-9-carbonitrile], for which the “Time for which the compound interfered” value is 2 h.
`N#CC1=C2C(=NC1=O)c1cccc3cccc2c13` [8-oxo-8H-acenaphtho[1,2-b]pyrrole-9-carbonitrile]: the “Time for which the compound interfered” value was 2 h.
With `N#CC1=C2C(=NC1=O)c1c(Sc3ccc(N)cc3)ccc3c(Sc4ccc(N)cc4)ccc2c13` [3,6-di(4-aminophenylthio)-8-oxo-8 H-acenaphtho[1,2-b]pyrrole-9-carbonitrile], the “Time for which the compound interfered” value worked out at 2 h.
For the compound `N#CC1=C2C(=NC1=O)c1cccc3c(Sc4ccc(Br)cc4)ccc2c13` [3-(4-bromophenylthio)-8-oxo-8H-acenaphtho[1,2-b]pyrrole-9-carbonitrile], the “Time for which the compound interfered” value came out at 2 h.

Still in this experiment, the particulars now being: goes with the time of E12.
As for `N#CC1=C2C(=NC1=O)c1c(Sc3ccc(Br)cc3)ccc3c(Sc4ccc(Br)cc4)ccc2c13` [3,6-di(4-bromophenylthio)-8-oxo-8H-acenaphtho[1,2-b]pyrrole-9-carbonitrile], the “Concentration at which the compound interfered with the interaction between Bcl-2 and Bax” value was determined as 1.0 µM.
Take `N#CC1=C2C(=NC1=O)c1c(Sc3ccc(N)cc3)ccc3cccc2c13` [6-(4-aminophenylthio)-8-oxo-8H-acenaphtho[1,2-b]pyrrole-9-carbonitrile]: the “Concentration at which the compound interfered with the interaction between Bcl-2 and Bax” value worked out at 0.2 µM.
Turning to `N#CC1=C2C(=NC1=O)c1cccc3cccc2c13` [8-oxo-8H-acenaphtho[1,2-b]pyrrole-9-carbonitrile], the “Concentration at which the compound interfered with the interaction between Bcl-2 and Bax” value came out at 0.1 µM.
For `N#CC1=C2C(=NC1=O)c1c(Sc3ccc(N)cc3)ccc3c(Sc4ccc(N)cc4)ccc2c13` [3,6-di(4-aminophenylthio)-8-oxo-8 H-acenaphtho[1,2-b]pyrrole-9-carbonitrile], the “Concentration at which the compound interfered with the interaction between Bcl-2 and Bax” value stood at 1.0 µM.
In the case of `N#CC1=C2C(=NC1=O)c1cccc3c(Sc4ccc(Br)cc4)ccc2c13` [3-(4-bromophenylthio)-8-oxo-8H-acenaphtho[1,2-b]pyrrole-9-carbonitrile], the “Concentration at which the compound interfered with the interaction between Bcl-2 and Bax” value amounted to 0.5 µM.

In another experiment the test system is Bax protein. Nature of the experiment: co-localization between Bax protein and chondriosome, Bax-YFP transfected MCF-7 cells. Format: cell-based. The note with it: goes with the concentration of E14. The protocol: 5 ng of Bax-YFP plasmid was transfected into MCF-7 cells by using calcium phosphate coprecipitation method, 24 hours later, the cells were inoculated in a 6-well plate (0.2×10^6 cells/well), and 10 μM of the compound 3-thiomorpholinyl-8-oxo-8 H-acenaphtho[1,2-b]pyrrole-9-carbonitrile to be detected was added thereinto. 6 hours later, the cells were washed with PBS and hatched away from light with 50 nM Mito Tracker Red CMXRos (chondriosome specific probes; red) for 10 minutes. Then the cells were washed with PBS for three times, and the fluorescent image was scanned with Radiance2000 laser confocal microscopy (Bio-Rad, USA). Meanwhile, dual channel scanning was carried out, one channel was used to scan the green fluorescence of Bax-YFP, and the other channel was used to scan the red fluorescence of the CMXRos probe for indicating the chondriosome. […] When the Bax protein was localized on the chondriosome, the green and red fluorescence was superimposed into orange, as shown in FIG. 4.
Other 8 compounds were detected by the same experimental method as described above. […] Wherein the concentration and time meant that the detected compound simulated the BH3-only protein and driven the BAX to shift towards the chondriosome at the concentration for the time period.
In the case of `N#CC1=C2C(=NC1=O)c1c(Sc3ccc(Br)cc3)ccc3c(Sc4ccc(Br)cc4)ccc2c13` [3,6-di(4-bromophenylthio)-8-oxo-8H-acenaphtho[1,2-b]pyrrole-9-carbonitrile], the “Time for which the compound drove the BAX to shift towards the chondriosome” value (from here on “Time … to shift towards the chondriosome”) came to 6 h.
Consider `N#CC1=C2C(=NC1=O)c1c(Sc3ccc(N)cc3)ccc3cccc2c13` [6-(4-aminophenylthio)-8-oxo-8H-acenaphtho[1,2-b]pyrrole-9-carbonitrile], for which the “Time … to shift towards the chondriosome” value was determined as 6 h.
As for `N#CC1=C2C(=NC1=O)c1cccc3cccc2c13` [8-oxo-8H-acenaphtho[1,2-b]pyrrole-9-carbonitrile], the “Time … to shift towards the chondriosome” value stood at 3 h.
As for `N#CC1=C2C(=NC1=O)c1c(Sc3ccc(N)cc3)ccc3c(Sc4ccc(N)cc4)ccc2c13` [3,6-di(4-aminophenylthio)-8-oxo-8 H-acenaphtho[1,2-b]pyrrole-9-carbonitrile], the “Time … to shift towards the chondriosome” value was found to be 6 h.
On to `N#CC1=C2C(=NC1=O)c1cccc3c(Sc4ccc(Br)cc4)ccc2c13` [3-(4-bromophenylthio)-8-oxo-8H-acenaphtho[1,2-b]pyrrole-9-carbonitrile], for which the “Time … to shift towards the chondriosome” value was determined as 6 h.

Staying with this experiment, now noted: goes with the time of E15.
For `N#CC1=C2C(=NC1=O)c1c(Sc3ccc(Br)cc3)ccc3c(Sc4ccc(Br)cc4)ccc2c13` [3,6-di(4-bromophenylthio)-8-oxo-8H-acenaphtho[1,2-b]pyrrole-9-carbonitrile], the “Concentration at which the compound drove the BAX to shift towards the chondriosome” value stood at 5.0 µM.
Take `N#CC1=C2C(=NC1=O)c1c(Sc3ccc(N)cc3)ccc3cccc2c13` [6-(4-aminophenylthio)-8-oxo-8H-acenaphtho[1,2-b]pyrrole-9-carbonitrile]: the “Concentration at which the compound drove the BAX to shift towards the chondriosome” value was 5.0 µM.
Take `N#CC1=C2C(=NC1=O)c1cccc3cccc2c13` [8-oxo-8H-acenaphtho[1,2-b]pyrrole-9-carbonitrile]: the “Concentration at which the compound drove the BAX to shift towards the chondriosome” value was 1.0 µM.
As to `N#CC1=C2C(=NC1=O)c1c(Sc3ccc(N)cc3)ccc3c(Sc4ccc(N)cc4)ccc2c13` [3,6-di(4-aminophenylthio)-8-oxo-8 H-acenaphtho[1,2-b]pyrrole-9-carbonitrile], the “Concentration at which the compound drove the BAX to shift towards the chondriosome” value came out at 5.0 µM.
As to `N#CC1=C2C(=NC1=O)c1cccc3c(Sc4ccc(Br)cc4)ccc2c13` [3-(4-bromophenylthio)-8-oxo-8H-acenaphtho[1,2-b]pyrrole-9-carbonitrile], the “Concentration at which the compound drove the BAX to shift towards the chondriosome” value came out at 1.0 µM.
